Legend:
cleaved caspase-3 = assay: Immunoblot of cleaved caspase-3 in KMM1 cells; assay type: cell-based, human; conditions: KMM1, 25 μM, 48 hr
Protocol: Furthermore, a noticeable increase in cleaved caspase levels in KMM1 cells treated with 25 μM GL8 and MT30 was observed. In comparison with 25 μM CAPE, a 3.2 fold increase in cleaved caspase-3 by MT30 and a 2.9 fold increase by 25 μM of GL8 were observed (FIG. 5).

KMM1 myeloma cells = assay: KMM1 myeloma cell growth inhibition, PrestoBlue cell viability assay, 48 hours; assay type: cell-based, human
Protocol: Human myeloma cell line KMM1 was purchased from the Japanese Collection of Research Bioresources Cell Bank (JCBR, Japan). KMS-11 cells were a kind gift from Dr. David Hoskin's Laboratory, […], Canada. Myeloma cells were grown in RPMI-1640 media (Sigma Aldrich, USA) supplemented with 5% heat inactivated FBS (Gibco), […] L-glutamine (Gibco), 5 mM HEPES and 1% Penstrep (Sigma Aldrich, USA) in a 5% CO2 incubator at 37° C. Cell lines were tested regularly for mycoplasma and kept free of contamination. All other chemicals were obtained from Sigma Aldrich, USA. Myeloma cells were seeded in 96 well plates at a density of 10^4 cells/well in appropriate cell media. Following overnight incubation at 37° C., MM cells were treated for 48 hours with varying concentrations of CAPE and its closely related analogues and cell viability was determined by PrestoBlue assay (Invitrogen, ON) according to the manufacturer's protocol. […] Myeloma cell growth inhibition was determined by presto blue cell viability assay (FIG. 2). […] At 5 μM, GL8 inhibited 49.9±2.9%, while CAPE inhibited the growth of 7.3±1% myeloma cells only (P=0.000017); At 10 μM, GL8 inhibited 62.3±2%, while CAPE inhibited the growth of 25.6±5% (P=0.00026).

Bob-1 = assay: Immunoblot of Bob-1 protein levels in KMM1 cells; assay type: cell-based, human; conditions: KMM1, 25 μM, 48 hours
Cyclin D3 = assay: Immunoblot of cyclin D3 protein levels in KMM1 cells; assay type: cell-based, human; conditions: 48 hours; for cyclin D3 protein levels in comparison with CAPE: KMM1, 25 μM; for effect on cyclin D3 levels: KMM1, 1, 5 and 25 μM
IRF4 [1] = assay: Immunoblot of IRF4 protein expression in KMM1 cells
From the text: (§1) Total protein extract was obtained from KMM1 and KMS-11 cells treated with CAPE and its closely related analogues and concentration of proteins determined by the Bicinchoninic acid assay (BCA) method. Protein samples were then fractionated by sodium dodecyl sulfate polyacrylamide gel electrophoresis (SDS PAGE) and transferred electrophoretically to a polyvinylidene (PVDF) membrane. Blots were then blocked with 5% nonfat dry milk in tris(hydroxymethyl)aminomethane-buffered saline-tween (TBS-T) for 1 hour and then incubated overnight with goat polyclonal anti-IRF4 antibody; rabbit polyclonal anti-OCT2 antibody, rabbit polyclonal anti-Bob1 antibody (Santa Cruz Biotechnology, Santa Cruz, CA); mouse polyclonal anti-Cyclin D3 (Cell Signaling Technology, Whitby, ON) and mouse monoclonal anti-beta tubulin antibody (Abcam, Cambridge, MA). Detection of protein in PVDF membrane was performed using the chemiluminescence kit (Bio-Rad Laboratories, Hercules, CA).
KMM1 cells were treated with 1, 5 and 25 μM of CAPE and its closely related analogues for 48 hours, cells were then harvested and proteins were extracted. 15 μg protein lysates were separated on a 4-20% gradient gel and then transferred to the PVDF membrane. The membrane was probed for IRF4 protein expression using affinity purified goat polyclonal antibody. Beta-actin was used as protein loading control.

OCT2 = assay: Immunoblot of OCT2 protein levels in KMM1 cells; assay type: cell-based, human; conditions: KMM1, 25 μM, 48 hours
Ikaros [2] = assay: Immunoblot of cereblon pathway protein Ikaros in KMM1 cells; assay type: cell-based, human; conditions: KMM1 (lenalidomide resistant)
From the text: as §1

[3] = tested on: OCI-Ly3 human lymphoma cell line; assay: Lymphoma cell growth inhibition in lenalidomide-insensitive OCI-Ly3; assay type: cell-based
[4] = tested on: normal human bone marrow mononuclear cells; assay: Cell viability of normal mononuclear cells after 48 hr, Prestoblue cell viability assay; assay type: cell-based; conditions: for Normal Bone Marrow Mononuclear Cell Viability (%) Average: 48 hr; for inhibition of cell growth of normal human bone marrow cells (in words): 1, 10, 25, 50 μM, 48 hrs
From the text: Cell Viability of Normal Mononuclear Cells after 48 hr CAPE and GL8 Treatment, Determined by Prestoblue Cell Viability Assay.

Ikaros [5] = assay: Immunoblot of Ikaros in lenalidomide-responsive KMS-11 cells; assay type: cell-based, human; conditions: KMS-11, 50 μM
From the text: as §1

IRF4 [6] = assay: Immunoblot of IRF4 in lenalidomide-responsive KMS-11 cells; assay type: cell-based, human; conditions: KMS-11 (lenalidomide responsive)
From the text: as §1

[7] = tested on: KMM1 lenalidomide non-responsive myeloma cell line; assay: Combination treatment of lenalidomide and CAPE analogues, KMM1 cell viability after 72 hr; conditions: Homo sapiens
[8] = tested on: MMIR human myeloma cell line; assay: Cell growth inhibition effect of lenalidomide on MMIR myeloma cells; assay type: cell-based
[9] = tested on: MM1S human myeloma cell line; assay: Cell growth inhibition effect of lenalidomide on MM1S myeloma cells; assay type: cell-based
[10] = KMM-1, 72 h, read-out: % KMM1 Cell viability after 72 hr Lenalidomide Treatment
[11] = KMM-1, read-out: % KMM1 Cell viability, single compound treatment

O=C(/C=C/c1ccc(O)c(O)c1)OCCC1CCCCC1 [MT30]
increase in cleaved caspase-3 in comparison with 25 μM CAPE (cleaved caspase-3): 3.2 fold | myeloma cell growth inhibition (in words) (KMM1 myeloma cells; KMM1): significant myeloma cell growth inhibition | Bob-1 protein levels (Bob-1): downregulated | cyclin D3 protein levels in comparison with CAPE (Cyclin D3): decreased cyclin D3 protein levels dramatically | IRF4 protein expression (in words) (IRF4 [1]; KMM1, 25 μM, 48 hours): significantly down regulated | OCT2 protein levels (OCT2): downregulated

O=C(O)/C=C/c1ccc(O)c(O)c1 [CA, Caffeic acid]
effect on cyclin D3 levels (Cyclin D3): did not have any effect

O=C(/C=C/c1ccc(O)c(O)c1)OCCCc1ccccc1 [GL8]
increase in cleaved caspase-3 in comparison with 25 μM CAPE (cleaved caspase-3): 2.9 fold | myeloma cell growth inhibition (in words) (KMM1 myeloma cells; KMM1): significant myeloma cell growth inhibition | myeloma cell growth inhibition (KMM1 myeloma cells; KMM1, 48 hours, 25 μM): 58.3±13% | myeloma cell growth inhibition (KMM1 myeloma cells; KMM1, 48 hours, 50 μM): 80±5% | levels of Ikaros in comparison with 50 μM CAPE (Ikaros [2]): significantly decreased | Bob-1 protein levels (Bob-1): downregulated | lymphoma cell growth inhibition ([3]; OCI-Ly3, 5 μM): 49.9±2.9% | lymphoma cell growth inhibition ([3]; OCI-Ly3, 10 μM): 62.3±2% | cyclin D3 protein levels in comparison with CAPE (Cyclin D3): decreased cyclin D3 protein levels dramatically | effect on cyclin D3 levels (Cyclin D3): decrease cyclin D3 levels in a dose-dependent manner | levels of IRF4 in comparison with 50 μM CAPE (IRF4 [1]; KMM1 (lenalidomide resistant), 50 μM): significantly decreased | decrease of IRF4 protein expression level (IRF4 [1]; KMM1, 25 μM, 48 hours): 62% | Normal Bone Marrow Mononuclear Cell Viability (%) Average ([4]; 1 μM): 110.0% | Normal Bone Marrow Mononuclear Cell Viability (%) Average ([4]; 10 μM): 109.2% | Normal Bone Marrow Mononuclear Cell Viability (%) Average ([4]; 25 μM): 110.3% | Normal Bone Marrow Mononuclear Cell Viability (%) Average ([4]; 50 μM): 101.9% | inhibition of cell growth of normal human bone marrow cells (in words) [4]: neither GL8 nor CAPE at the following concentrations inhibited | OCT2 protein levels (OCT2): downregulated | levels of Ikaros in comparison with 50 μM CAPE (Ikaros [5]): significantly decreased | levels of IRF4 in comparison with 50 μM CAPE (IRF4 [6]; 50 μM): significantly decreased

Nc1cccc2c1CN(C1CCC(=O)NC1=O)C2=O (stereo not shown) [Lenalidomide]
cell growth inhibition effect (sensitivity in words) (KMM1 myeloma cells; KMM1): insensitive | cell growth inhibition effect (sensitivity in words) ([3]; OCI-Ly3): insensitive | effect on IRF4 protein level (IRF4 [1]; KMM1 (lenalidomide resistant), 10 μM, 25 μM and 50 μM): Neither the clinically relevant concentration of 10 μM lenalidomide (Greenberg et al., 2013) nor higher concentrations of lenalidomide (25 μM and 50 μM) tested had any effect | viability at 0.0001 µM [7, 10]: 99% | viability at 0.0005 µM [7, 10]: 97% | viability at 0.001 µM [7, 10]: 97% | viability at 0.005 µM [7, 10]: 96% | viability at 0.01 µM [7, 10]: 97% | viability at 0.1 µM [7, 10]: 85% | viability at 1 µM [7, 10]: 80% | viability at 10 µM [7, 10]: 80% | viability at 100 µM [7, 10]: 78% | cell growth inhibition effect (sensitivity in words) [8]: moderately sensitive | cell growth inhibition effect (sensitivity in words) [9]: sensitive | effect on IRF4 protein level (IRF4 [6]; 10 μM, 25 μM and 50 μM): did not alter

O=C(/C=C/c1ccc(O)c(O)c1)OCCc1ccccc1 [CAPE, Caffeic acid (3,4-dihydroxycinnamic acid) phenethyl ester]
inhibition at 1 µM (KMM1 myeloma cells; Homo sapiens, KMM-1, KMM1, 48 hours, 1 μM, 5 μM and 10 μM): < 30% | inhibition at 25 µM (KMM1 myeloma cells; Homo sapiens, KMM-1, KMM1, 48 hours, 25 μM): 38.7 ± 4% | inhibition at 50 µM (KMM1 myeloma cells; Homo sapiens, KMM-1, KMM1, 48 hours, 50 μM): 59.6 ± 2% | Bob-1 protein levels (Bob-1): downregulated | inhibition at 5 µM ([3]; Homo sapiens, OCI-Ly3, 5 μM): 7.3 ± 1% | inhibition at 10 µM ([3]; Homo sapiens, OCI-Ly3, 10 μM): 25.6 ± 5% | decrease of IRF4 protein expression level (IRF4 [1]; KMM1, 25 μM, 48 hours): 26% | Normal Bone Marrow Mononuclear Cell Viability (%) Average ([4]; 1 μM): 99.3% | Normal Bone Marrow Mononuclear Cell Viability (%) Average ([4]; 10 μM): 103.4% | Normal Bone Marrow Mononuclear Cell Viability (%) Average ([4]; 25 μM): 117.7% | Normal Bone Marrow Mononuclear Cell Viability (%) Average ([4]; 50 μM): 122.6% | inhibition of cell growth of normal human bone marrow cells (in words) [4]: neither GL8 nor CAPE at the following concentrations inhibited | viability at 5 µM [7, 11]: 51.8% | viability at 25 µM [7, 11]: 36% | OCT2 protein levels (OCT2): downregulated

O=C(/C=C/c1ccc(O)c(O)c1)NCCc1ccccc1 [D19]
effect on cyclin D3 levels (Cyclin D3): did not have any effect

Source: US12201599B2, “Compositions and methods for inhibiting blood cancer cell growth” (University of New Brunswick, priority 2017, dated 2025)
